Broadly, the IC50 is the point on the concentration scale where inhibition reaches its midpoint. By EC50 is commonly meant the midpoint of the concentration-response curve.

Read-outs that look alike come from different tables or passages of the source.

In data set [1] the target is T1, PIM-1 (Homo sapiens (Human), UniProt P11309). Nature of the data set: Pim-1 kinase inhibition assay (Promega Kinase-Glo). In kind it is biochemical. The note with it: read-out: Compound IC50 on Pim1. From the text:
One illustrative manner in which Pim-1 kinase activity can be determined is by quantifying the amount of ATP remaining in solution after an in vitro Pim-1 kinase reaction. The Kinase-Glo Assay Kit (Promega, Inc., Madison, Wis.) allows this. The amount of ATP remaining in the solution after the kinase reaction serves as a substrate for the luciferase to catalyze luciferin to oxyluciferin plus one photon of light. Thus, the luminescent signal read by the Luminoskan Ascent Instrument (Thermo Electron Corp., Milford, Mass.) correlates with the amount of ATP present after the kinase reaction and inversely correlates with the amount of kinase activity. […] These assays are set up in duplicate 50 ul volumes in white, flat bottom 96 well plates. […] This solution is incubated at 30 degrees Celsius at 360 rpm for two hours. Following the incubation, 50 ul of Kinase-Glo reagent is added to each well, including all positive and negative control wells, and incubated at room temperature for 15 minutes. […] The IC50 values can then be calculated for each inhibitor tested.
(Kinase-Glo reads ATP consumption through a luciferase reaction.)

The target in the next data set is hERG (Homo sapiens (Human), UniProt Q12809). Nature of the data set: hERG Fast Patch assay (WuXiApptec). The data set is classed as cell-based.
Sequence of hERG (Q12809 whole entry): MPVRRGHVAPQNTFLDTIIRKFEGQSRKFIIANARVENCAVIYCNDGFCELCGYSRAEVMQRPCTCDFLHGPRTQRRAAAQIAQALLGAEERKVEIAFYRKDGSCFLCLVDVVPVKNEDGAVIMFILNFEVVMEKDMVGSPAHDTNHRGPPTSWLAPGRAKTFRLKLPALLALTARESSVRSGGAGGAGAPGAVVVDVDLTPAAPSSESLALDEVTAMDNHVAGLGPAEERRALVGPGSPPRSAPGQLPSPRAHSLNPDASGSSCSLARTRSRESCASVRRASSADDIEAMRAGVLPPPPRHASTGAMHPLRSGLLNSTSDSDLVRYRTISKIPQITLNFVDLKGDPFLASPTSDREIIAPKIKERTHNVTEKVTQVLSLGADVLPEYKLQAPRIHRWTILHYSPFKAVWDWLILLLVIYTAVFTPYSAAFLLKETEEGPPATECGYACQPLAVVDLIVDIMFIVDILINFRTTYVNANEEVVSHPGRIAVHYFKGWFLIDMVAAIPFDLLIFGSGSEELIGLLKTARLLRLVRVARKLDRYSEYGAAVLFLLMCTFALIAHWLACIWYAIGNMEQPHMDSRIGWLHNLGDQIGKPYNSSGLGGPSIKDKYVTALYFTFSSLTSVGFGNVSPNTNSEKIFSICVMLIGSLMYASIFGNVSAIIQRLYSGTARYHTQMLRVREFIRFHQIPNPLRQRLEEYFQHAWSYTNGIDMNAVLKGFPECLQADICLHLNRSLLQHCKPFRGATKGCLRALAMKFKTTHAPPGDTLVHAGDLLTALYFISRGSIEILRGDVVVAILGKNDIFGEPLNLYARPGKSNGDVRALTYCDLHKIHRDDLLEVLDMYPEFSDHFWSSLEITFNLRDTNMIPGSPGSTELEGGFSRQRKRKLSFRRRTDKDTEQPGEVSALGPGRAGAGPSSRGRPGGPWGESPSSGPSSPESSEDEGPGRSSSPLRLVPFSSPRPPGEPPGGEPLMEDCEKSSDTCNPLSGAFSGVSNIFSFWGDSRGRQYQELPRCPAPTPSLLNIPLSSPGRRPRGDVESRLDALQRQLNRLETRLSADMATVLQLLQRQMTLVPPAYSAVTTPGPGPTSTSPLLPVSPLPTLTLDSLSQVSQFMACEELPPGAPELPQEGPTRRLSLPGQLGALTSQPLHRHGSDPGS
Data set [2] deals with T1, PIM-1. Nature of the data set: PIM-1/BAD over-expression phospho-BAD (Ser112) AlphaScreen assay in HEK-293 cells. In kind it is cell-based. To be noted: PIM-1/BAD over-expression in HEK-293 cells; read-out: average EC50, PIM-1 specific cellular activity (BAD Ser112 phosphorylation). As for the experimental part: HEK-293 cells (1×10^4) were seeded in a 96-well plate using EMEM media with serum and incubated overnight at 37° C. in 5% CO2. […] Cells were serum starved for an additional 18 hours, then treated 2 hours with various concentrations of SGI-9481 or 0.5% carrier DMSO control. Media was removed and cells were lysed using 25 μl 1× lysis buffer from the AlphaScreen SureFire Phospho-BAD (Ser112) kit from Perkin Elmer. Lysates (4 μl) were transferred to a 384-well proxiplate, and 5 μl of acceptor mix was added to each well and incubated for 2 hours at room temperature. Donor mix (2 μl) was added to each well, and samples incubated for 2 hours at room temperature and reactions measured on an Envision plate reader (Perkin Elmer) with AlphaScreen capabilities. Non-specific phosphorylation of BAD was subtracted using values from PIM-1 KD transfected cells, and the remaining wells were normalized to the DMSO control wells. EC50 values were calculated using GraphPad Prism software (La Jolla, Calif.).

The subject of another data set is 22RV1/PIM-1 xenografts. Nature of the data set: 22RV1/PIM-1 over-expression mouse tumor xenograft. In kind it is in vivo. An excerpt: (§1) Male and female Nu/Nu mice were purchased from Harlan Sprague Dawley (Indianapolis, Ind.). Female Nu/Nu mice were used for all xenograft evaluations with the exception of the PC-3 xenografts where male Nu/Nu mice were used. Cell lines were expanded in vitro in complete media, and if adherent were harvested by trypsin-EDTA, centrifuged and resuspended in PBS 1:1 with Matrigel (BD Bioscienes). Cells were inoculated subcutaneously in the right hind flank of mice. When tumors reached 100-200 mm^3 by caliper measurement, mice were randomized and dosing of SGI-9481 or vehicle control began and continued every day for 5 days (QD×5) with 2 days off for 18-21 days. Tumor volumes and body weights were determined twice a week, and tumor weights were measured at the completion of the translational xenograft studies.
(§2) The prostate cancer cell line 22RV1 engineered to over-express PIM-1 as previously described (Mumenthaler, et al, Mol. Cancer Ther., 2009, 8(10)2882-93) was evaluated in vivo. A second model engineered to over-express PIM-2 was established using the NIH-3T3 mouse fibroblast cell line.

The test system of another data set is NIH-3T3/PIM-2 xenografts. Nature of the data set: NIH-3T3/PIM-2 over-expression mouse tumor xenograft. In kind it is in vivo.
From the text: as §1, §2

A further data set relates to UM-UC-3 xenograft tumors. Nature of the data set: UM-UC-3 established mouse xenograft tumors. The data set is classed as in vivo.
From the text: as §1, with “When tumors reached 100-200 mm^3 by caliper measurement, mice were randomized and dosing of SGI-9481 or vehicle control began and continued every day for 5 days (QD×5) with 2 days off for 18-21 days.” left out

For the next data set, the system named is PC-3 xenograft tumors. Nature of the data set: PC-3 established mouse xenograft tumors. The data set is classed as in vivo.
From the text: as §1, with “When tumors reached 100-200 mm^3 by caliper measurement, mice were randomized and dosing of SGI-9481 or vehicle control began and continued every day for 5 days (QD×5) with 2 days off for 18-21 days.” left out

Data set [3] can be described thus: Pharmacokinetic study in PC-3 tumor-burdened mice. The data set is classed as in vivo, mouse. To be noted: 200 mg/kg.
Data set [4] has as its system phosphatidyl inositol-3-kinase (PI3K) family. In words: Selectivity study. In kind it is biochemical.
Data set [5] has as its system ML-2 cells (wild-type FLT3) xenografts. In words: ML-2 mouse xenograft study. In kind it is in vivo. The note with it: ML-2 (wild-type FLT3) xenografts.
From the text: as §1

For data set [6], the system named is MV-4-11 (FLT3-ITD) xenografts. In words: MV-4-11 mouse xenograft study. In kind it is in vivo.
From the text: as §1

Setting [7] is: 125 mg/kg, less than with 200 mg/kg.

T1 sequence (P11309 whole entry): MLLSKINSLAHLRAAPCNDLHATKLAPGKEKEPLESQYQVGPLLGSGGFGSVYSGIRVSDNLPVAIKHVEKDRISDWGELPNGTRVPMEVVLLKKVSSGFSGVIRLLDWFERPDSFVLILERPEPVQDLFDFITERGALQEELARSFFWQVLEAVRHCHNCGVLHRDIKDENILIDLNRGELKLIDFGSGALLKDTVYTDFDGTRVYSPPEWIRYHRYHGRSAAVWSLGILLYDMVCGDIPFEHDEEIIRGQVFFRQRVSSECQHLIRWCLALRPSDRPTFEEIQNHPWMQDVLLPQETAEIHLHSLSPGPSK

`N[C@H]1CC[C@H](Nc2ccc3ncc(-c4cccc(OC(F)(F)F)c4)n3n2)CC1` [Compound 8-8, (3-(3-(Trifluoromethoxy)phenyl)imidazo[1,2-b]pyridazin-6-yl)cyclohexane-trans-1,4-diamine]: the IC50 on PIM-1 [1] (Table IV) was determined as 4 nM.
For `C[C@]1(O)CC[C@H](Nc2ccc3ncc(-c4cccc(C(F)(F)F)c4)n3n2)CC1` [Compound 8-30, 1-Methyl-4-((3-(3-(trifluoromethyl)phenyl)imidazo[1,2-b]pyridazin-6-yl)amino)-trans-cyclohexanol], the IC50 at PIM-1 [1] (Table IV) came out at 103 nM; against hERG, 12000 nM.
With `CC(C)(O)[C@H]1CC[C@H](Nc2ccc3ncc(-c4cccc(C(F)(F)F)c4)n3n2)CC1` [Compound 8-31], the IC50 on PIM-1 [1] (Table IV) is 1 nM. For the same molecule, on PIM-1 [2], the EC50 stood at 67 nM. Besides, the subcutaneous tumor growth entry with 22RV1/PIM-1 xenografts (22RV1/PIM-1 + compound vs 22RV1/PIM-1 + vehicle) was “significantly reduced”; in the data set with NIH-3T3/PIM-2 xenografts (NIH-3T3/PIM-2 + compound vs NIH-3T3/PIM-2 + vehicle), “significantly inhibited”. In addition, the body weight changes entry in the data set on 22RV1/PIM-1 xenografts (22RV1/PIM-1 xenograft mice) and in the data set with NIH-3T3/PIM-2 xenografts (NIH-3T3/PIM-2 xenograft mice) was “No significant changes in body weight” throughout. The tumor growth inhibition result (in the data set on UM-UC-3 xenograft tumors (setting [7]); in the data set with PC-3 xenograft tumors (setting [7]); in [5]) was “significant tumor growth inhibition” throughout. Besides, the “body weight or gross adverse toxicity” value in the data set on UM-UC-3 xenograft tumors (oral dosing 200 mg/kg) and in the data set with PC-3 xenograft tumors (oral dosing 200 mg/kg) was “no significant changes in body weight or gross adverse toxicity” throughout. In addition, the “tumor growth by volume (caliper) and final tumor weight” value with UM-UC-3 xenograft tumors (oral dosing 200 mg/kg) and in the data set on PC-3 xenograft tumors (oral dosing 200 mg/kg) was “significantly reduced” in each case. Besides, in data set [3], the “plasma and tumor tissue levels” value was “above the in vitro proliferation EC50”. Also, the “activity against multiple members of the PI3K family” value in data set [4] is recorded as “inhibitory activity”. Besides, the “effect on established xenografts” value in data set [6] is given as “induced regressions”.
`CO[C@H]1CC[C@H](Nc2ccc3ncc(-c4cccc(C(F)(F)F)c4)n3n2)CC1` [Compound 8-32, 4-(trans-Methoxycyclohexyl)-3-(3-(trifluoromethyl)phenyl)imidazo[1,2-b]pyridazin-6-amine]: the IC50 at PIM-1 [1] (Table IV) was found to be 115 nM.
In the case of `C[C@]1(O)CC[C@H](Nc2ccc3ncc(-c4cccc(Cl)c4)n3n2)CC1` [Compound 8-36, 4-((3-(3-Chlorophenyl)imidazo[1,2-b]pyridazin-6-yl)amino)-1-methyl-trans-cyclohexano], on PIM-1 [1] (Table IV), the IC50 is 145 nM.
`CC(C)(O)[C@H]1CC[C@H](Nc2ccc3ncc(-c4cccc(Cl)c4)n3n2)CC1` [Compound 8-37]: the IC50 on PIM-1 [1] (Table IV) was 4 nM; against hERG it was > 30000 nM.
For the molecule `CC(C)(O)[C@H]1CC[C@H](Nc2ccn3ncc(-c4cccc(C(F)(F)F)c4)c3n2)CC1` [Compound 8-56], the IC50 at hERG is > 30000 nM.
Same read-out and setting: the same measure for `CC(C)(O)[C@H]1CC[C@H](Nc2ccn3ncc(-c4cccc(Cl)c4)c3n2)CC1` [Compound 8-63]: > 30000 nM.
In the case of `CC(C)(N)[C@H]1CC[C@H](Nc2ccc3ncc(-c4cccc(Cl)c4)n3n2)CC1` [Compound 8-79, N-(trans-4-(2-aminopropan-2-yl)cyclohexyl)-3-(3-chlorophenyl)imidazo[1,2-b]pyridazin-6-amine], the IC50 at PIM-1 [1] (Table IV) turned out to be 2 nM.
Regarding `CO[C@H]1CC[C@H](Nc2ccc3nnc(-c4cccc(OC(F)(F)F)c4)n3c2)CC1` [Compound 8-99, 4-(trans-Methoxycyclohexyl)-3-(3-(trifluoromethoxy)phenyl)-[1,2,4]triazolo[4,3-a]pyridin-6-amine], the IC50 on PIM-1 [1] (Table V) was 83 nM.
The same measure, in the same setting: the same measure for `C[C@]1(O)CC[C@H](Nc2ccc3nnc(-c4cccc(C(F)(F)F)c4)n3c2)CC1` [Compound 8-108, 1-Methyl-4-((3-(3-(trifluoromethyl)phenyl)-[1,2,4]triazolo[4,3-a]pyridin-6-yl)amino)-trans-cyclohexanol]: 70 nM; for `CO[C@H]1CC[C@H](Nc2ccc3nnc(-c4cccc(Cl)c4)n3c2)CC1` [Compound 8-113, 4-(trans-Methoxycyclohexyl)-3-(3-chlorophenyl)-[1,2,4]triazolo[4,3-a]pyridin-6-amine]: 722 nM.

(Values after patent US9416132B2, “Substituted imidazo[1,2-b]pyridazines as protein kinase inhibitors” (Tolero Pharmaceuticals, Inc., priority 2011, dated 2016).)
